Source: patent US7960378B2, “Therapeutic compounds” (Allergan, Inc., priority 2008, dated 2011)

How the values were obtained:
Type in all cases: in vivo
[1] = tested on: normotensive dogs; experiment: IOP in normotensive dogs; details: versus baseline
[2] = tested on: laser-induced hypertensive monkeys; experiment: IOP in laser-induced hypertensive monkeys; details: versus baseline
[3] = tested on: lashes and adjacent hairs of the eyelids; experiment: Lash and adjacent hair changes in glaucoma patients treated in one eye; details: glaucoma patient treated in only one eye
Source text: In the course of treating patients having glaucoma, treatment may only be appropriate in one eye. […] The lash appearance on the lids of the treated eyes would have appeared quite attractive if it represented a bilateral phenomenon. As a result of its asymmetric nature, the long lashes on one side could be construed as disturbing from a cosmetic standpoint. A systemic examination was preformed as a result of the asymmetric phenomenon. It soon became apparent that this altered appearance was not an isolated finding. […] Definite differences could be identified to varying degrees in the lashes and adjacent hairs of all patients who were taking the drug on a unilateral basis for longer than 6 months.
The changes in the lashes were apparent on gross inspection in several patients once attention was focused on the issue. In those with light colored hair and lashes, the differences were only seen easily with the aid of the high magnification and lighting capabilities of the slit lamp biomicroscope. In the course of glaucoma follow-up examination, attention is generally immediately focused on the eye itself. As a result of the high power magnification needed only one eye is seen at a time and the eye is seen at a high enough power that the lashes are not in focus. […]

## CCC1(C(O)CCC[C@@H]2[C@@H](CCCCCCC(=O)OCCO)[C@H](C#N)C[C@H]2O)CCC1 (stereo partly drawn) [Compound III]
[1]
  intraocular pressure (IOP): decreases from baseline
[2]
  IOP: decreases from baseline

## N#C[C@@H]1C[C@@H](O)[C@H](/C=C/CC(O)C2(c3cccs3)CCC2)[C@H]1C/C=C\CCCC(=O)OCCO (stereo partly drawn) [Compound II]
[1]
  intraocular pressure (IOP): decreases from baseline
[2]
  IOP: decreases from baseline

## N#C[C@@H]1C[C@@H](O)[C@H](/C=C/CC(O)C2(c3cccs3)CCC2)[C@H]1CCCCCCC(=O)OCCO (stereo partly drawn) [Compound IV]
[1]
  intraocular pressure (IOP): decreases from baseline
[2]
  IOP: decreases from baseline

## CCC1(C(O)C/C=C/[C@@H]2[C@@H](C/C=C\CCCC(=O)OCCN3CCOCC3)[C@H](C#N)C[C@H]2O)CCC1 (stereo partly drawn) [Compound IX]
[1]
  intraocular pressure (IOP): decreases from baseline
[2]
  IOP: decreases from baseline

## CCC1(C(O)C/C=C/[C@@H]2[C@@H](C/C=C\CCCC(=O)OCCO)[C@H](C#N)C[C@H]2O)CCC1 (stereo partly drawn) [Compound I]
[1]
  intraocular pressure (IOP): decreases from baseline
[2]
  IOP: decreases from baseline

## N#C[C@@H]1C[C@@H](O)[C@H](CCCC(O)C2(c3cccs3)CCC2)[C@H]1CCCCCCC(=O)OCCO (stereo partly drawn) [Compound VIII]
[1]
  intraocular pressure (IOP): decreases from baseline
[2]
  IOP: decreases from baseline

## CCC1(C(O)C/C=C/[C@@H]2[C@@H](CCCc3ccc(C(=O)OCCO)s3)[C@H](C#N)C[C@H]2O)CCC1 (stereo partly drawn) [Compound VII]
[1]
  intraocular pressure (IOP): decreases from baseline
[2]
  IOP: decreases from baseline

## CCC1(C(O)CCC[C@@H]2[C@@H](CCCc3ccc(C(=O)OCCO)s3)[C@H](C#N)C[C@H]2O)CCC1 (stereo partly drawn) [Compound VI]
[1]
  intraocular pressure (IOP): decreases from baseline
[2]
  IOP: decreases from baseline

## N#C[C@@H]1C[C@@H](O)[C@H](/C=C/CC(O)C2(Cc3ccc(Cl)s3)CCC2)[C@H]1C/C=C\CCCC(=O)OCCO (stereo partly drawn) [Compound V]
[1]
  intraocular pressure (IOP): decreases from baseline
[2]
  IOP: decreases from baseline

## N#C[C@@H]1C[C@@H](O)[C@H](/C=C/CC(O)C2(Cc3ccc(Cl)s3)CCC2)[C@H]1C/C=C\CCCC(=O)OCCN1CCOCC1 (stereo partly drawn) [Compound XIII]
[1]
  intraocular pressure (IOP): decreases from baseline
[2]
  IOP: decreases from baseline

## N#C[C@@H]1C[C@@H](O)[C@H](/C=C/CC(O)C2(c3cccs3)CCC2)[C@H]1CCCCCCC(=O)OCCN1CCOCC1 (stereo partly drawn) [Compound XII]
[1]
  intraocular pressure (IOP): decreases from baseline
[2]
  IOP: decreases from baseline

## CCC1(C(O)CCC[C@@H]2[C@@H](CCCc3ccc(C(=O)OCCN4CCOCC4)s3)[C@H](C#N)C[C@H]2O)CCC1 (stereo partly drawn) [Compound XIV]
[1]
  intraocular pressure (IOP): decreases from baseline
[2]
  IOP: decreases from baseline

## CCC1(C(O)CCC[C@@H]2[C@@H](CCCCCCC(=O)OCCN3CCOCC3)[C@H](C#N)C[C@H]2O)CCC1 (stereo partly drawn) [Compound XI]
[1]
  intraocular pressure (IOP): decreases from baseline
[2]
  IOP: decreases from baseline

## CCC1(C(O)C/C=C/[C@@H]2[C@@H](CCCc3ccc(C(=O)OCCN4CCOCC4)s3)[C@H](C#N)C[C@H]2O)CCC1 (stereo partly drawn) [Compound XVI]
[1]
  intraocular pressure (IOP): decreases from baseline
[2]
  IOP: decreases from baseline

## N#C[C@@H]1C[C@@H](O)[C@H](CCCC(O)C2(c3cccs3)CCC2)[C@H]1CCCCCCC(=O)OCCN1CCOCC1 (stereo partly drawn) [Compound XV]
[1]
  intraocular pressure (IOP): decreases from baseline
[2]
  IOP: decreases from baseline

## N#C[C@@H]1C[C@@H](O)[C@H](/C=C/CC(O)C2(c3cccs3)CCC2)[C@H]1C/C=C\CCCC(=O)OCCN1CCOCC1 (stereo partly drawn) [Compound X]
[1]
  intraocular pressure (IOP): decreases from baseline
[2]
  IOP: decreases from baseline

## CCNC(=O)CCC/C=C\C[C@@H]1[C@@H](/C=C/[C@@H](O)CCc2ccccc2)[C@H](O)C[C@@H]1O [bimatoprost]
[3]
  lash appearance, treated eye versus non-treated eye: longer, thicker, and fuller in the treated eye than in the non-treated eye
